Patent US20220378711A1, “PH-Responsive Nanoparticles for Treating Cancer” (United States Government as represented by the Department …, priority 2021, published 2022)
Where two headings read alike, the source gives them in different places.

Assays:
[1] = cited from earlier work
[2] = test system: MIA PaCa-2 cells; assay: MTT cell viability and CompuSyn synergy assay; assay type: cell-based; details: MIA PaCa-2, 72 h MTT
Method: (§1) PDAC cells (5000 cells/well) were seeded in 96-well plates and, 24 h later, cells were treated with different concentrations of nanocapsulated SCH 772984, DEM, or their combinations. Control cells were treated with an equivalent level of DMSO. Drug concentrations were optimized for the cell-based assay of the individual drug. At 72 h after treatment, the cell viability assay was performed by adding 10 μL of the 3-(4,5-dimethylthiazol-2-yl)-2,5-diphenyltetrazolium bromide (MTT) reagent to each well, and the plates were incubated for 3 h at 37° C. The MTT reagent was removed, DMSO (100 μL/well) was added to solubilize the crystals, and absorbance was measured at 570 nm. Synergy analysis was performed using CompuSyn software.
(§2) The data was fitted in CompuSyn. These two cell lines were selected because MIA PaCa-2 cells are responsive to ERKi and GEM compared to Panc-1. […] However, consistent with previous studies, the Panc-1 cells were more resistant to these drugs compared to MIA PaCa-2 cells.

[3] = test system: Panc-1 cells; assay: MTT cell viability and CompuSyn synergy assay; assay type: cell-based; details: Panc-1, 72 h MTT
Method: as §1, §2

[4] = test system: ERK phosphorylation (p44/p42 MAPK/ERK1/2); assay: Western blot of ERK activity in PDAC cells; assay type: cell-based
Method: Western blot analysis was the same as described in Mol. Cancer Ther. 2019, 18, 788-800. Briefly, cells were seeded at a cell density of 500,000 cells/well in 6-well plates. About 60% of confluent cells were treated with nanoparticles alone (NPA), free ERKi (FEI), or encapsulated ERKi (EEI) for 3 h at 0.001, 0.01, 0.1, 1, and 10 nM concentrations of the drug. Cells were lysed in a lysis buffer (50 mmol/L Tris pH7.4, 150 mmol/L sodium chloride, 1% NP-40, 0.25% sodium deoxycholate, 1 mmol/L EDTA) containing PMSF and Protease/Phosphatase Inhibitor Cocktail (Cell Signaling Technologies). Proteins were quantified with the Pierce BCA protein assay kits (Thermo Fisher Scientific). Under reducing conditions, a […] sample was loaded onto 10% SDS gels for the separation of proteins, and the resulting gel was transferred onto a […] nitrocellulose membrane. The blots were then immersed in a 5% blocking buffer made in Tris base and Tween-20 followed by incubation with antibodies against total-ERK and phospho-ERK primary antibodies (Cell Signaling Technologies; diluted in blocking buffer at 1:1000) overnight. The secondary antibody was incubated for 1 h at room temperature. The signal from the blots was detected using the Super Signal West Femto Maximum Sensitivity substrate (Thermo Fisher).
To determine the functional efficacy of ERKi-pH NPs, the question of whether encapsulated ERKi SCH 772984 can suppress the ERK activity by suppressing ERK phosphorylation (p44/p42 MAPK/ERK1/2) in PDAC cells was investigated. To do so, MIA PaCa-2 cells were exposed to nanoparticles free of SCH 772984 or encapsulated with SCH 772984 with different doses (0.1-100 nM) for 3 hours. Following treatment, total, phospho-ERK, RSK, and GAPDH were determined using Western blot analysis in the cell extracts.

[5] = test system: MIA PaCa-2 cells; assay: Clonogenic survival assay; assay type: cell-based
Method: PDAC cells were seeded at a density of 400 cells/well in 6-well plates. The following day, cells were treated with nanoencapsulated ERKi at a concentration of 0.01 nM, carrier-encapsulated GEM at a concentration of 0.1 nM, and a combination of 0.01 nM encapsulated ERKi, and 0.1 nM encapsulated GEM for 12 days. After the incubation time, the medium was removed, and the cells were fixed with 3:1 methanol/glacial acetic acid for 15 min at room temperature. After the fixing reagent was removed, the cells were stained with 0.5% crystal violet solution (in methanol) for 15 min. The plates were washed thoroughly with tap water to remove residual crystal violet. The plates were dried overnight, and the colonies were counted using Colony Doc-It imaging station using Colony Doc-It imaging software.
To examine the link between ERK and GEM resistance in PDAC cells, a Clonogenic assay was performed for anchorage-dependent growth in MIA PaCa-2 and Panc-1 cell lines in the presence or absence of free or encapsulated ERKi (10 nM) or GEM (100 nM) alone or a combination of these two drugs for 12 days. The half-effective doses of encapsulated ERKi or encapsulated GEM was purposely selected from the preceding studies shown in FIG. 6 and FIG. 7 because these doses of free-drugs have minimal or no effect on PDAC cell viability (FIG. 6) and ERK phosphorylation (FIG. 7).

[6] = LC-MS drug concentration in tumor xenograft tissue; assay type: in vivo, nude mice; details: nude, mouse, intraperitoneal, injected ip as drug-pH NPs, 75 mg/kg SCH772984, 40 mg/kg GEM, read-out: drug concentration in tumor tissues
Method: LC-MS analysis of drugs was performed on a Q-TOF Synapt G2S mass spectrometer (Waters, Milford, Mass.) coupled with an Acquity UPLC system (Waters). Drugs were resolved on an ACUITY UPLC HSS T3 column ([…], 100 Å pore diameter, 2.1 mm×150 mm, Waters) with an acetonitrile/water gradient containing 0.1% formic acid. GEM was detected as [M+H]+, and SCH 772984 was detected as [M+2H]2+ in a positive ESI mode.
Next, in vivo studies to obtain information on the systemic stability and tumor enrichment capacity of pH NPs were performed. The fate of drug-encapsulated nanoparticles in the MIA PaCa-2-pancreatic tumor xenograft model in immune-compromised nude mice was studied. Upon intraperitoneal (ip) administration of free or drug-pH NPs [75 mg/kg for SCH772984 and 40 mg/kg for GEM; human equivalent dose (HED)] for 48 h in tumor-bearing mice (N=3), the drug concentrations in tumor tissues was measured using LC-MS.

[7] = cited from earlier work; remark: listed apart in the source

| SMILES | pKa [1] | IC50 of free drug compared with encapsulated drug [2] | IC50 of free drug compared with encapsulated drug [3] | change of pERK level, less than 10 nM encapsulated ERKi ([4]; 10 nM, MIA PaCa-2) [fold] | total ERK and total RSK expression ([4]; MIA PaCa-2, 3 hours) | p-ERK and p-RSK levels ([4]; MIA PaCa-2, 3 hours, dose-dependent) | concentration at which inhibitory effect on p-ERK/p-RSK was first detected ([4]; MIA PaCa-2, 3 hours, doses 0.1-100 nM) [nM] | effect of ERKi on GEM's effect on PDAC cells ([5]; ERKi at minimum inhibitory concentration (0.01 nM)) | concentration at 48 h [6] [ng/g] | solubility [7] | solubility ([7]; listed as unencapsulated ERKi) | survival and colony-forming ability ([5]; MIA PaCa-2, 12 days, ERKi 10 nM, GEM 100 nM) |
| --- | --- | --- | --- | --- | --- | --- | --- | --- | --- | --- | --- | --- |
| CCCCNCCNCCCC [N,N′-dibutylethylenediamine] | 4.0 |  |  |  |  |  |  |  |  |  |  |  |
| O=C(Nc1ccc2[nH]nc(-c3ccncc3)c2c1)[C@@H]1CCN(CC(=O)N2CCN(c3ccc(-c4ncccn4)cc3)CC2)C1 [SCH 772984] |  | markedly higher | markedly higher | 2.4 | did not affect | markedly decreased | 100 | significantly enhances | ~2 | low water solubility | extremely poor solubility |  |
| Nc1ccn([C@@H]2O[C@H](CO)[C@@H](O)C2(F)F)c(=O)n1 [GEM, gemcitabine] |  | markedly higher | markedly higher |  |  |  |  |  | ~4 |  |  | decrease the colony-forming ability of these cells significantly |
